Tests used:
clinical = conditions: human
[1] = target: 5-hydroxytryptamine receptor 2A (Homo sapiens, UniProt P28223)
Description: Antagonist activity at 5HT2A receptor (unknown origin)

D(2) dopamine receptor [2] = target: T1, D(2) dopamine receptor (Homo sapiens, UniProt P14416)
Description: Antagonist activity at postsynaptic D2 receptor (unknown origin)

D(2) dopamine receptor [3] = target: T1, D(2) dopamine receptor; remark: listed apart in the source
Description: Partial agonist activity at presynaptic D2 receptor (unknown origin)

T1 sequence (P14416 whole entry): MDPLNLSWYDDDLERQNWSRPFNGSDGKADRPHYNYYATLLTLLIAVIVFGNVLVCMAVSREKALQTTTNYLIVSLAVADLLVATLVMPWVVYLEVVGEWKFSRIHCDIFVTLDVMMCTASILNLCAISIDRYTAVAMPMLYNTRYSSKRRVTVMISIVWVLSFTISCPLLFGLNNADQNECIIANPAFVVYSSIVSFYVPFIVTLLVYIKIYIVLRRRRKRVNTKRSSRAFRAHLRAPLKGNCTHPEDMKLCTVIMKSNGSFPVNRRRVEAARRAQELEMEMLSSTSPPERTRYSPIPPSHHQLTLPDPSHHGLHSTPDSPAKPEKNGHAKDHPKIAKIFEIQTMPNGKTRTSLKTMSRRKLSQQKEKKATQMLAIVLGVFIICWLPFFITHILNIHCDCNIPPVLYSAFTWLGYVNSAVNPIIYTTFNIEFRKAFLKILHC
Sequence of 5-hydroxytryptamine receptor 2A (P28223 whole entry): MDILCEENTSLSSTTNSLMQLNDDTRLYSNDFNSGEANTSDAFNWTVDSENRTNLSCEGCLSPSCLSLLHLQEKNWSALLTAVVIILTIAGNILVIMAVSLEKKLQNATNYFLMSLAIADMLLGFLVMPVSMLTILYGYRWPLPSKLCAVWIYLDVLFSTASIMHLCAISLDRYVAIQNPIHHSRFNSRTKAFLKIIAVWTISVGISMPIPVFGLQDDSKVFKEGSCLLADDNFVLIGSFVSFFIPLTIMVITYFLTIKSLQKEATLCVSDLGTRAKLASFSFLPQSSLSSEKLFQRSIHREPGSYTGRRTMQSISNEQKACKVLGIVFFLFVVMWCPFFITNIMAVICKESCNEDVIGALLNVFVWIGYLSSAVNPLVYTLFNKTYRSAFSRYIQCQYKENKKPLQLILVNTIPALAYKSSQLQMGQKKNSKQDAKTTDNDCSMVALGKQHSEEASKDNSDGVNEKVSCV

Row | SMILES | half-life (clinical) | IC50 [1] | IC50 (D(2) dopamine receptor [2]) | IC50 (D(2) dopamine receptor [3])
1 | CCn1c(=O)c2c(nc(/C=C/c3ccc(OC)c(OC)c3)n2C)n(CC)c1=O [ISTRADEFYLLINE] | 64 h |  |  | 
2 | CN1CCN2c3c(cccc31)[C@@H]1CN(CCCC(=O)c3ccc(F)cc3)CC[C@@H]12 [LUMATEPERONE] |  | 0.54 nM | 3.2 nM | 4.1 nM
